Data: patent US20220008296A1, “CAPSULE FORMULATION” (Capsugel Belgium NV, priority 2014, published 2022)

Assays:
[1] = cited from earlier work
[2] = acid resistance experiment: litmus colour inside oil-filled, band-sealed DRcaps capsule submerged in acid; type: physicochemical; parameters: key to Result (color): −: almost all red/unsuitable; +: about half red/passable; ++: all blue/excellent; conditions: for liquid color / acidification inside the capsule (in words) / Result (color): 120 minutes after submersion in JP first liquid pH1.2, 37°; for liquid color / acidification inside the capsule (in words): Example 2; for Result (color): colour of litmus powder in the fill of a DRcaps capsule, n=3
Protocol: The fine powder of a litmus reagent that changes to red in response to acid (blue, Wako Pure Chemical Industries Ltd. high grade), used as an active ingredient, is dispersed or dissolved in 0.2% by weight each of MCT, which is an edible oil (medium chain fatty acid triglyceride, coconad MT (made by Kao Co.) and glycerin, which is a water-based edible additive (made by Kao Co.) (dissolves very readily in water, comparative example). Then, 300 μL each of this solution is loaded into the separated body portion of an acid resistant hard capsule made by Capsugel (DRcaps (trademark), size no. 2, transparent no color). Then, a capsule formulation is prepared by sealing the fitted part of the cap portion and the body portion of the hard capsule using a band sealing solution (see FIG. 1). It should be noted that the band sealing solution is produced based on the information described in International Application PCT/US2013/041838 (application date May 20, 2013) (title of invention “ACID RESISTANT BANDING SOLUTION FOR TWO PIECE HARD CAPSULES”) wherein US Patent Application No. 61/707,135 (application date: Sep. 28, 2012) forms the basic application, which is an undisclosed application. The composition of the band sealing solution is ethanol: 59.9% by weight, shellac: 37.0% by weight, water: 1.6% by weight, and surfactant (sorbitan fatty acid aster and glycerin fatty acid ester) 1.5% by weight.
(§1) These capsule formulations are wrapped in wire to prevent the capsule formulations from floating up, and submerged in the first liquid (pH1.2 liquid) in the Japanese Pharmacopoeia which is maintained at 37° to simulate the gastric acid inside a living organism.
The experiment was carried out with the same conditions used in example 1 (amount of oil, measurement conditions, measurement time, and the like), and the effect on acid resistance when another oil or surfactant is enclosed in the capsule was examined. In this example, the following criteria were determined based on the color of the fine litmus powder dissolved or dispersed in oil enclosed in a capsule.
as §1, with “were” for “are”, “Pharmacopoeia” for “Pharmacopoeia which is”, “organism. The color of the liquid in the capsule 120 minutes after submersion is shown (see FIG. 4).” for “organism.”
It should be noted that because the four oils, DHA, rice germ oil, vitamin E, and vitamin A, are light yellow to dark green, visually confirming the change of the fine litmus powder from blue to red due to acid seeping into oil within the capsule was difficult. Therefore, the color was confirmed by enlarging the litmus particles dispersed within the oil from outside the capsule using a microscope. The determination criteria for this was the same as described above (see FIG. 5).

Row | Result (color) [2] | Compound | Specific Gravity (25° C.) [1] | liquid color / acidification inside the capsule (in words) [2] | liquid color in the capsule ([2]; after 20 minutes in JP first liquid pH1.2, 37°, Example 1)
1 | ++ | Vitamin A | 0.92 | the interior of the capsule did not become acidic | 
2 | − | Glycerin fatty acid ester | 1.02 | the entire inside of the capsule turned red | 
3 | − | Sorbitan fatty acid ester | 0.95 | the entire inside of the capsule turned red | 
4 | − | OCC(O)CO [Glycerin, reference compound] | 1.264 | the entire inside of the capsule turned red | the entire inside of the capsule turned red
